{"source": "patent US20210077439A1", "about": "(priority 2016, published 2021)", "key": {"joints (arthritis)": {"tested_on": "joints (arthritis)", "conditions": "dog, in vivo"}, "[1]": {"conditions": "in vivo; cited from earlier work"}, "[2]": {"conditions": "in vivo; cited from earlier work", "remark": "listed apart in the source"}, "[3]": {"tested_on": "quadriceps (knee extensor musculature)", "set-up": "species or system New Zealand White rabbits", "conditions": "rabbit, in vivo"}, "quadriceps muscle": {"tested_on": "quadriceps muscle", "set-up": "species or system New Zealand White rabbits", "conditions": "rabbit, in vivo"}, "skeletal muscle": {"tested_on": "skeletal muscle", "conditions": "in vivo; cited from earlier work"}}}
{"compound": "CCC1(c2ccccc2)C(=O)NC(=O)NC1=O", "note": "[phenobarbital, reference compound]", "values": [{"measurement": "adverse effect of the seizure treatment", "setting": "joints (arthritis)", "value": "severe ataxia"}]}
{"compound": "NCC1(CC(=O)O)CCCCC1", "note": "[gabapentin, reference compound]", "values": [{"measurement": "adverse effect of the seizure treatment", "setting": "joints (arthritis)", "value": "severe ataxia"}]}
{"compound": "CC(C)(O)CC(=O)O", "note": "[HMB, β-hydroxy-β-methylbutyric acid]", "values": [{"measurement": "loss of HMB to urine", "setting": "[1]", "value": "20-50%"}, {"measurement": "ataxia, owner-observed, after resuming the HMB regimen", "setting": "joints (arthritis)", "value": "significant improvement"}, {"measurement": "joint stability and movement, owner-observed outcome", "setting": "joints (arthritis)", "value": "increased joint stability, decreased joint instability, improved balanced movement and stability of skeletal joints"}, {"measurement": "mobility after resuming the HMB regimen during anti-seizure medication", "setting": "joints (arthritis)", "value": "began standing up without assistance, and was able to climb stairs without significant assistance"}, {"measurement": "side effects", "setting": "[2]", "value": "no side effects"}, {"measurement": "botox-induced loss of strength in the contralateral musculature", "setting": "[3]", "value": "prevented much of the botox-induced loss of strength"}, {"measurement": "contralateral muscle weights as a percentage of body weight versus botox (p<0.10) and control (p<0.03) groups", "setting": "quadriceps muscle", "value": "larger contralateral musculature"}, {"measurement": "muscle hypertrophy in the contralateral leg", "setting": "quadriceps muscle", "value": "greatly increased"}]}
{"compound": "[Br-].[K+]", "note": "[potassium bromide, reference compound]", "values": [{"measurement": "adverse effect of the seizure treatment", "setting": "joints (arthritis)", "value": "severe ataxia"}]}
{"compound": "CC(C)(O)CC(=O)O", "note": "[HMB-FA]", "values": [{"measurement": "decrease in protein breakdown", "setting": "skeletal muscle", "value": "−56", "unit": "%"}, {"measurement": "increase in skeletal muscle protein synthesis", "setting": "skeletal muscle", "value": "+70%"}, {"measurement": "plasma levels of HMB compared with calcium HMB", "setting": "[1]", "value": "approximately double"}, {"measurement": "time to plasma level compared with calcium HMB", "setting": "[1]", "value": "about one-quarter the time"}]}
